Measurements from ChEMBL document CHEMBL1138246, “Ester prodrugs of cyclic 1-(S)-[3-hydroxy-2-(phosphonomethoxy)propyl]-5-azacytosine: synthesis and antiviral activity” (J Med Chem, 2007).
≈ marks a conversion by molar mass, not a printed value.

Assays:
[1] = test system: Vesicular stomatitis virus; experiment: microbe, parasite or virus in culture; settings: HEL
[2] = Cytotoxicity against C3H cells assessed as alteration in morphology after 3 days; type: cell-based, Mus musculus; settings: Mus musculus, C3H, 72 h
Punta Toro virus = experiment: Antiviral activity against Punta Toro virus in Vero cells reduction of virus-induced cytopathogenicity after 4 days; type: functional, organism-based; settings: 96 h
[3] = test system: Human immunodeficiency virus 2; type: functional, organism-based; settings: Human immunodeficiency virus 2, ROD, CCRF-CEM, 96 h
HEL [4] = experiment: Cytotoxicity against HEL cells assessed as cell growth after 3 days; type: functional, Homo sapiens; settings: Homo sapiens, HEL, 72 h; read-out: CC50
Human adenovirus 2 = type: functional, organism-based; settings: Human mastadenovirus C, HEL
Sindbis virus = experiment: Antiviral activity against Sindbis virus in Vero cells reduction of virus-induced cytopathogenicity after 4 days; type: functional, organism-based; settings: 96 h
[5] = test system: Respiratory syncytial virus; type: functional, organism-based; settings: human respiratory syncytial virus, HeLa
CCRF-CEM = experiment: Cytotoxicity against CEM cells assessed as cell growth after 3 days; type: functional; settings: Homo sapiens, 72 h
Human respirovirus 3 = experiment: Antiviral activity against Parainfluenza 3 in Vero cells reduction of virus-induced cytopathogenicity after 4 days; type: functional, organism-based; settings: Human respirovirus 3, Vero, 96 h
[6] = Cytotoxicity against HSB2 cells assessed as alteration in morphology after 3 days; type: functional, Homo sapiens, CCRF-HSB-2; settings: Homo sapiens, CCRF-HSB-2, 72 h; read-out: MCC
Human alphaherpesvirus 3 [7] = type: functional, organism-based; settings: Human alphaherpesvirus 3, 07-1, HEL
Human betaherpesvirus 5 [8] = type: functional, organism-based; settings: Human betaherpesvirus 5, Davis, HEL
[9] = test system: Vesicular stomatitis virus; experiment: microbe, parasite or virus in culture; settings: HeLa
[10] = test system: Mammalian orthoreovirus 1; experiment: Antiviral activity against Reovirus 1 in Vero cells reduction of virus-induced cytopathogenicity after 4 days; type: functional, organism-based; settings: Mammalian orthoreovirus 1, Vero, 96 h
HEL [11] = experiment: Cytotoxicity against HEL cells assessed as alteration in morphology after 3 days; type: functional; settings: Homo sapiens, 72 h
Human alphaherpesvirus 3 [12] = type: functional, organism-based; settings: Human alphaherpesvirus 3, OKA, HEL
[13] = test system: Human immunodeficiency virus 1; type: functional, organism-based; settings: Human immunodeficiency virus 1, 3B, CCRF-CEM, 96 h
Human betaherpesvirus 5 [14] = type: functional, organism-based; settings: Human betaherpesvirus 5, AD169, HEL
Coxsackievirus B4 [15] = type: functional, organism-based; settings: Enterovirus B, Vero
Human alphaherpesvirus 2 [16] = type: functional, organism-based; settings: Human alphaherpesvirus 2, Lyons, HEL
[17] = test system: Moloney murine sarcoma virus; settings: C3H
Vero = experiment: Cytotoxicity against Vero cells assessed as alteration in morphology after 3 days; type: cell-based, Chlorocebus sabaeus; settings: Chlorocebus sabaeus, Vero, 72 h
Human alphaherpesvirus 2 [18] = type: functional, organism-based; settings: Human alphaherpesvirus 2, G, HEL
MOLT-3 = experiment: Cytotoxicity against MOLT3 cells assessed as alteration in morphology after 3 days; type: functional, Homo sapiens; settings: Homo sapiens, MOLT-3, 72 h; read-out: MCC
Coxsackievirus B4 [19] = type: functional, organism-based; settings: Enterovirus B, HeLa
HeLa = experiment: Cytotoxicity against HeLa cells assessed as alteration in morphology after 3 days; type: functional, cell-based; settings: Homo sapiens, 72 h

For `CCCCCCCCCCCCCCCCCCOP1(=O)CO[C@@H](Cn2cnc(N)nc2=O)CO1` (some centres not stated), the EC50 [1] was > 1.6 µg/mL, the EC50 [2] was 20 µg/mL (≈ 38.9 µM) and the EC50 (Punta Toro virus) was > 8 µg/mL. For the same molecule, the EC50 [3] was > 20 µg/mL, the CC50 (HEL [4]) was > 100 µg/mL and the EC50 (Human adenovirus 2) was 0.051 µg/mL (≈ 0.0991 µM). For the same molecule, the EC50 (Sindbis virus) was > 8 µg/mL, the EC50 [5] was > 40 µg/mL and the CC50 (CCRF-CEM) was 12 µg/mL (≈ 23.3 µM). For the same molecule, the EC50 (Human respirovirus 3) was > 8 µg/mL, the MCC [6] was ≥ 5 µg/mL and the EC50 (Human alphaherpesvirus 3 [7]) was 0.009 µg/mL (≈ 0.0175 µM). The EC50 (Human betaherpesvirus 5 [8]) was 0.0014 µg/mL (≈ 0.00272 µM), the EC50 [9] was > 40 µg/mL and the EC50 [10] was > 8 µg/mL. The MCC (HEL [11]) was 8 µg/mL, the EC50 (Human alphaherpesvirus 3 [12]) was 0.04 µg/mL (≈ 0.0777 µM) and the EC50 [13] was > 20 µg/mL. The EC50 (Human betaherpesvirus 5 [14]) was 0.0037 µg/mL (≈ 0.00719 µM), the EC50 (Coxsackievirus B4 [15]) was > 8 µg/mL and the EC50 (Human alphaherpesvirus 2 [16]) was 1.31 µg/mL (≈ 2.55 µM). For the same molecule, the EC50 [17] was > 4 µg/mL, the EC50 (Vero) was 40 µg/mL (≈ 77.7 µM) and the EC50 (Human alphaherpesvirus 2 [18]) was 1.66 µg/mL (≈ 3.23 µM). The MCC (MOLT-3) was 0.8 µg/mL, the EC50 (Coxsackievirus B4 [19]) was > 40 µg/mL and the EC50 (HeLa) was 200 µg/mL (≈ 389 µM).
